Measurements published in ChEMBL document CHEMBL3991601, “The target landscape of clinical kinase drugs” (Science, 2017).
Active and inactive are the calls of the source.

Assays:
Focal adhesion kinase 1 = Focal adhesion kinase 1 (Homo sapiens, UniProt Q05397)
[1] = biological target: T1, Acyl-CoA dehydrogenase family member 10 (Homo sapiens, UniProt Q6JQN1)
T1 sequence (Q6JQN1 whole entry): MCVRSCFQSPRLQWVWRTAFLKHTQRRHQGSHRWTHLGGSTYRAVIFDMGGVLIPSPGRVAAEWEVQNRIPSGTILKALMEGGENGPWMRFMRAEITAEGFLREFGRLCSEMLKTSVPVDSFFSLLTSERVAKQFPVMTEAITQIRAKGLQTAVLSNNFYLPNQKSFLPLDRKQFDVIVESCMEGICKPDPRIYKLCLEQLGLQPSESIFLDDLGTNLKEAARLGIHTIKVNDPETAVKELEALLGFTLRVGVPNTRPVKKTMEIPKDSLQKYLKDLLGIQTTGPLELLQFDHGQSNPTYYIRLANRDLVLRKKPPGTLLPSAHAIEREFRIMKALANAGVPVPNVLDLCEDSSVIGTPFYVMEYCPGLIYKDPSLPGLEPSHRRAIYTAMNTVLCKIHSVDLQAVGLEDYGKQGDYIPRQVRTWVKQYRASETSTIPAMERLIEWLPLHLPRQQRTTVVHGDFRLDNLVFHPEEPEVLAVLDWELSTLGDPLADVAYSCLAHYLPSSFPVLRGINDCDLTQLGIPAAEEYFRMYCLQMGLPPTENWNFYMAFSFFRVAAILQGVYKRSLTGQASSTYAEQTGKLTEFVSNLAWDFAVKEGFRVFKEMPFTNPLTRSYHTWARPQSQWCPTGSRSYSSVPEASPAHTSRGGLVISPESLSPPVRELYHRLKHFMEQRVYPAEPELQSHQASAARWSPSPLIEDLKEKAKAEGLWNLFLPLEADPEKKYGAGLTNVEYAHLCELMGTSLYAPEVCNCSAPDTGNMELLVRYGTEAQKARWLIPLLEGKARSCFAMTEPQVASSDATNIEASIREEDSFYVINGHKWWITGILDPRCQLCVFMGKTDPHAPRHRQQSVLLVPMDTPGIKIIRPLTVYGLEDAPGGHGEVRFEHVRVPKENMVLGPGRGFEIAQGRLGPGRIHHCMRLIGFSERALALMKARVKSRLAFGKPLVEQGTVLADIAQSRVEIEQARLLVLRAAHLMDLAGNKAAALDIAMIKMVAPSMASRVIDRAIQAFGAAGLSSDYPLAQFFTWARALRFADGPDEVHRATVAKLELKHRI

[2] = biological target: Calcium/calmodulin-dependent protein kinase type II subunit delta (Homo sapiens, UniProt Q13557)
[3] = biological target: Mitogen-activated protein kinase 7 (Homo sapiens, UniProt Q13164)
[4] = biological target: Ribosomal protein S6 kinase alpha-3 (Homo sapiens, UniProt P51812)
[5] = biological target: DnaJ homolog subfamily A member 1 (Homo sapiens, UniProt P31689)
[6] = biological target: T2, DNA replication licensing factor MCM4 (Homo sapiens, UniProt P33991)
T2 sequence (P33991 whole entry): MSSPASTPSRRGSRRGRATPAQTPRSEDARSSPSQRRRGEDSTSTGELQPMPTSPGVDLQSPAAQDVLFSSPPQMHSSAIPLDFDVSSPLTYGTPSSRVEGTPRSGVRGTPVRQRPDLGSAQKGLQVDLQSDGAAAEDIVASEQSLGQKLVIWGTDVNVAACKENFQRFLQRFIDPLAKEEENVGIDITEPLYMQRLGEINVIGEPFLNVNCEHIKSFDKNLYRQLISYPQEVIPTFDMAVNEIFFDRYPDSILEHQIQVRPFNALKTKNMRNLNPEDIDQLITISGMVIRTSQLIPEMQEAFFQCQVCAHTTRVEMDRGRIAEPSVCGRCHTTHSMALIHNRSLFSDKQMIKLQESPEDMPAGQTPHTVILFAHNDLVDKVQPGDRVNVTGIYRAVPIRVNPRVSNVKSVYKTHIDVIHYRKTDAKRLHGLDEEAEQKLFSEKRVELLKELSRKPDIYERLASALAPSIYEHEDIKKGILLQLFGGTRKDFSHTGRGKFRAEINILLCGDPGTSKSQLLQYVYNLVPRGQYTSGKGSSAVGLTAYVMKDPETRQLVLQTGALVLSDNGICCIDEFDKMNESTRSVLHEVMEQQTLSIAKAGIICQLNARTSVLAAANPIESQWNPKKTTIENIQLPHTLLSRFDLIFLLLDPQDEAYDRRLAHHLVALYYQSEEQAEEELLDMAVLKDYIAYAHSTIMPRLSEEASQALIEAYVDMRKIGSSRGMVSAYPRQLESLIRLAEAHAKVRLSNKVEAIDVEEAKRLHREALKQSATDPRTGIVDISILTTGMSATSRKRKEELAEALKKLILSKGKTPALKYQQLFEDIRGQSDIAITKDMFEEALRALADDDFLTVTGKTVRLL

[7] = biological target: T3, cGMP-dependent protein kinase 1 (Homo sapiens, UniProt Q13976)
T3 sequence (Q13976 whole entry): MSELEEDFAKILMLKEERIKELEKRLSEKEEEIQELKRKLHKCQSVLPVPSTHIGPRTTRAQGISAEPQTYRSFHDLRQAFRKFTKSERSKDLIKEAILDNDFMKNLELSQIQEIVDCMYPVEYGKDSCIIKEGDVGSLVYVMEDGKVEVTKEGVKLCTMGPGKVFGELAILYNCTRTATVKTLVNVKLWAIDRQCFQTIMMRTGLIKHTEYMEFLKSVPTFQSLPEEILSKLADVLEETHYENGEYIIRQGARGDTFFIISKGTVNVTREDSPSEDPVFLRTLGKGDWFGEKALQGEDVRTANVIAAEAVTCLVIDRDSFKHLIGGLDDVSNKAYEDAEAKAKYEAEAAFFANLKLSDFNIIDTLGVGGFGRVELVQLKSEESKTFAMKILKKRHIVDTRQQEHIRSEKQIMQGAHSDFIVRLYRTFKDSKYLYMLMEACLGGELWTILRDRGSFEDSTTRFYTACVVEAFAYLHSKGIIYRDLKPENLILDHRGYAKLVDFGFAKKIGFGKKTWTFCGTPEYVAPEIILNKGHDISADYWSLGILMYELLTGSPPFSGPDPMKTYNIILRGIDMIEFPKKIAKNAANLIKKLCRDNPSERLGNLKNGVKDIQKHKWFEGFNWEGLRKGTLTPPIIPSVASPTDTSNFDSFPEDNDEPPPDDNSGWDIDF
Note: in the data inactive means no Kd found up to 30 µM.

Sequence of Ribosomal protein S6 kinase alpha-3 (P51812 whole entry): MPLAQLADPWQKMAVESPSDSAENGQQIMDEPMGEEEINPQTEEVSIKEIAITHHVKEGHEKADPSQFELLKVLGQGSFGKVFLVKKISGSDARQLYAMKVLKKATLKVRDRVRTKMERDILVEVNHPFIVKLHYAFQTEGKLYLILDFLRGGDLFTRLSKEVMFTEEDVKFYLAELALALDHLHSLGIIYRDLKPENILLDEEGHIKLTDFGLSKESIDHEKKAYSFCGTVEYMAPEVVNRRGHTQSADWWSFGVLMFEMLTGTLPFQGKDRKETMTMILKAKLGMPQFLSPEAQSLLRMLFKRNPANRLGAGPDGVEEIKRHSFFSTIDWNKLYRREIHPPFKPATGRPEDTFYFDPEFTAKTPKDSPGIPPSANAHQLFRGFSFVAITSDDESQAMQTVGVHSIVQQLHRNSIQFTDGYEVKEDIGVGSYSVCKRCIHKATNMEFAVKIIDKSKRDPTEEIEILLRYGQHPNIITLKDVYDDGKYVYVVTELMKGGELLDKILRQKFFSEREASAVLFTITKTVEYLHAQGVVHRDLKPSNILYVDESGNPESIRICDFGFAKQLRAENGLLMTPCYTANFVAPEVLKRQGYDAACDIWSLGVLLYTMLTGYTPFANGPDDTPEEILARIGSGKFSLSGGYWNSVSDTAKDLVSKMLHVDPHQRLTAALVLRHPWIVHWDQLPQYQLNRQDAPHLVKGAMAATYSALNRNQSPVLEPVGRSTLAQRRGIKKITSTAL
Sequence of Calcium/calmodulin-dependent protein kinase type II subunit delta (Q13557 whole entry): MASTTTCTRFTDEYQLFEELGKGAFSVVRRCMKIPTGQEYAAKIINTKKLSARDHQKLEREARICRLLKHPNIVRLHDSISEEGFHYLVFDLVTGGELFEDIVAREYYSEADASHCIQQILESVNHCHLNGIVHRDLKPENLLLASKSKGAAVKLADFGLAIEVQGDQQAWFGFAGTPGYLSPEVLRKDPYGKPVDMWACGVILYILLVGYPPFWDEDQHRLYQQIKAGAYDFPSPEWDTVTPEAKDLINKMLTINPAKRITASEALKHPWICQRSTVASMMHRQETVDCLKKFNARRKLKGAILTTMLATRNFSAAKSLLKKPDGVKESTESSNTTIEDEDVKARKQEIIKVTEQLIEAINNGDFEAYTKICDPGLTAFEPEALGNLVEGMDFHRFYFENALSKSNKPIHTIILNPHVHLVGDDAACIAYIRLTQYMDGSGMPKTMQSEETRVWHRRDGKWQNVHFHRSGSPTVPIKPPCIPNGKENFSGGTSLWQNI
Sequence of Mitogen-activated protein kinase 7 (Q13164 whole entry): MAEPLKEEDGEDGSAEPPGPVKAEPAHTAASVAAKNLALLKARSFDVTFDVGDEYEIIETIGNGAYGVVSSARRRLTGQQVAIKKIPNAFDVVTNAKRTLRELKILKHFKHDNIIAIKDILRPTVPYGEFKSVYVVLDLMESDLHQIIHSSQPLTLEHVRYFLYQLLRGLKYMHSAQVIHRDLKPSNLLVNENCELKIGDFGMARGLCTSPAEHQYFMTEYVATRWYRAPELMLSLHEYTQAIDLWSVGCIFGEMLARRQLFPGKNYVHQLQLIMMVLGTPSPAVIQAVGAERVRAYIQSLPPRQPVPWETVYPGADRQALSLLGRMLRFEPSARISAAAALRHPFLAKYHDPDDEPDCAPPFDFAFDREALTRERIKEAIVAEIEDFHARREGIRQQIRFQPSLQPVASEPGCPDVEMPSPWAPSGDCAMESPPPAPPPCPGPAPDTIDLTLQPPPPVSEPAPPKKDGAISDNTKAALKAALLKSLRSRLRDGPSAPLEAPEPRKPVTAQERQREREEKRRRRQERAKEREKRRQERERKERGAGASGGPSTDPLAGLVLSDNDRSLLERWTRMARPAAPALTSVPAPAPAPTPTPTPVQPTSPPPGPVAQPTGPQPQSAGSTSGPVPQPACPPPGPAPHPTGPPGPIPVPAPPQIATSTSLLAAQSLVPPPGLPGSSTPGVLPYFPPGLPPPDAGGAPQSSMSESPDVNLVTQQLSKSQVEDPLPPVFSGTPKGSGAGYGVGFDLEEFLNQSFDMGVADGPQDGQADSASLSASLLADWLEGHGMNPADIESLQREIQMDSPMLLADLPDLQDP
Sequence of DnaJ homolog subfamily A member 1 (P31689 whole entry): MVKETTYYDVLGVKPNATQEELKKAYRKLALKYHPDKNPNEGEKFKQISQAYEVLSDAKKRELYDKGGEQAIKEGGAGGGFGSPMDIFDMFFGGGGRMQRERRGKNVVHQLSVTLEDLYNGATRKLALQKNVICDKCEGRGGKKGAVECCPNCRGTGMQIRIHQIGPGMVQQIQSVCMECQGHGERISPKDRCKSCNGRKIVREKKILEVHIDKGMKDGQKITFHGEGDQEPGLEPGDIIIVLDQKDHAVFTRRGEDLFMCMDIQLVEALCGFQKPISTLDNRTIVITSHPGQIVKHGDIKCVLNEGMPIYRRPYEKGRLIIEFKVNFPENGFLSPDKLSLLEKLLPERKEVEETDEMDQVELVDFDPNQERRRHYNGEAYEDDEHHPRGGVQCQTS
Sequence of Focal adhesion kinase 1 (Q05397 whole entry): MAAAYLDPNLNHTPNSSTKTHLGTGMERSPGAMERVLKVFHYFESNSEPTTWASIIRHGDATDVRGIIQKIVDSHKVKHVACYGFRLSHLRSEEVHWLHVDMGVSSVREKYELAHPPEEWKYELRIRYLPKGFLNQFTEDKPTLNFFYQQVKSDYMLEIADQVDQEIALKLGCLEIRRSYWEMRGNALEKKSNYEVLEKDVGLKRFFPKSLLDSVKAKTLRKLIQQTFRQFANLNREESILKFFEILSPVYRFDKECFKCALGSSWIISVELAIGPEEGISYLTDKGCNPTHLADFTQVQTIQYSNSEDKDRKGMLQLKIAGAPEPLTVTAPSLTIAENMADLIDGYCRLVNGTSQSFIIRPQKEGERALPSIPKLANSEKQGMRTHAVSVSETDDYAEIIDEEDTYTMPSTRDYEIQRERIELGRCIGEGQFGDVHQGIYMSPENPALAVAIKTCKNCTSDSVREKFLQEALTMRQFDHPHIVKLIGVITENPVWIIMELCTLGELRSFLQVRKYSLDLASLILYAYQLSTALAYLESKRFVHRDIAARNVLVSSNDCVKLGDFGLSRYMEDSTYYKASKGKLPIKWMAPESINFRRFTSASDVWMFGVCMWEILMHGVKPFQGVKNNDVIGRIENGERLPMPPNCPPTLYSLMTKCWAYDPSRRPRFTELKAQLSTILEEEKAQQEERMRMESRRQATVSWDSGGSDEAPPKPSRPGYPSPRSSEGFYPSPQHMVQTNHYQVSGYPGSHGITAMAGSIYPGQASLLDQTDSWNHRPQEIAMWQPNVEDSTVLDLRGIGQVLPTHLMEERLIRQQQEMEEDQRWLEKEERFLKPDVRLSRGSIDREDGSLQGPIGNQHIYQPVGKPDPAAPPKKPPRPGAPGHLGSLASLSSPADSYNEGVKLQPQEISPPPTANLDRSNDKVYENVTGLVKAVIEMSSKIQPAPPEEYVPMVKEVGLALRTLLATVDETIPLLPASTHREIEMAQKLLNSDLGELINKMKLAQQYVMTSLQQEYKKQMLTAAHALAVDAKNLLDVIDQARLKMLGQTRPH

Kd (Focal adhesion kinase 1) | Kd [1] | Kd [2] | Kd [3] | Kd [4] | Kd [5] | Kd [6] | Kd [7] | SMILES
> 30 µM (inactive) | > 30 µM (inactive) | > 30 µM (inactive) | > 30 µM (inactive) | > 30 µM (inactive) | > 30 µM (inactive) | > 30 µM (inactive) | > 30 µM (inactive) | C[C@@H](c1ccc2nccn2c1)n1nnc2ncc(-c3cnn(C)c3)nc21 [SAVOLITINIB]
> 30 µM (inactive) | > 30 µM (inactive) | 0.293 µM (active) | > 30 µM (inactive) | > 30 µM (inactive) | > 30 µM (inactive) | > 30 µM (inactive) | > 30 µM (inactive) | CN(C)C(=O)c1cc2cnc(Nc3ccc(N4CCNCC4)cn3)nc2n1C1CCCC1 [RIBOCICLIB]
> 30 µM (inactive) | > 30 µM (inactive) | > 30 µM (inactive) | > 30 µM (inactive) | > 30 µM (inactive) | > 30 µM (inactive) | > 30 µM (inactive) | > 30 µM (inactive) | CC[C@H](Nc1ncnc2[nH]cnc12)c1nc2cccc(F)c2c(=O)n1-c1ccccc1 [IDELALISIB]
> 30 µM (inactive) | > 30 µM (inactive) | > 30 µM (inactive) | > 30 µM (inactive) | > 30 µM (inactive) | > 30 µM (inactive) | > 30 µM (inactive) | > 30 µM (inactive) | COC(=O)N[C@@H](C)CNc1nccc(-c2cn(C(C)C)nc2-c2cc(Cl)cc(NS(C)(=O)=O)c2F)n1 [ENCORAFENIB]
> 30 µM (inactive) | > 30 µM (inactive) | > 30 µM (inactive) | > 30 µM (inactive) | > 30 µM (inactive) | > 30 µM (inactive) | > 30 µM (inactive) | > 30 µM (inactive) | COCCNCc1ccc(-c2cc3nccc(Oc4ccc(NC(=S)NC(=O)Cc5ccc(F)cc5)cc4F)c3s2)nc1 [GLESATINIB]
> 30 µM (inactive) | > 30 µM (inactive) | > 30 µM (inactive) | > 30 µM (inactive) | > 30 µM (inactive) | > 30 µM (inactive) | > 30 µM (inactive) | > 30 µM (inactive) | CNC(=O)CN1CCC(Oc2cc3c(Nc4cccc(Cl)c4F)ncnc3cc2OC)CC1 [SAPITINIB]
0.601 µM (active) | > 30 µM (inactive) | > 30 µM (inactive) | > 30 µM (inactive) | > 30 µM (inactive) | > 30 µM (inactive) | > 30 µM (inactive) | > 30 µM (inactive) | CC[C@@H]1C(=O)N(C)c2cnc(Nc3ccc(C(=O)N[C@H]4CC[C@H](N5CCN(CC6CC6)CC5)CC4)cc3OC)nc2N1C(C)C [VOLASERTIB]
> 30 µM (inactive) | > 30 µM (inactive) | > 30 µM (inactive) | > 30 µM (inactive) | > 30 µM (inactive) | > 30 µM (inactive) | > 30 µM (inactive) | > 30 µM (inactive) | C[C@@H]1CN(Cc2ccc(F)cc2)[C@@H](C)CN1C(=O)c1cc2c(C(=O)C(=O)N(C)C)cn(C)c2cc1Cl [TALMAPIMOD]
> 30 µM (inactive) | > 30 µM (inactive) | > 30 µM (inactive) | > 30 µM (inactive) | > 30 µM (inactive) | > 30 µM (inactive) | > 30 µM (inactive) | > 30 µM (inactive) | CO[C@H]1C[C@@H]2CC[C@@H](C)[C@@](O)(O2)C(=O)C(=O)N2CCCC[C@H]2C(=O)O[C@H]([C@H](C)C[C@@H]2CC[C@@H](OCCO)[C@H](OC)C2)CC(=O)[C@H](C)/C=C(\C)[C@@H](O)[C@@H](OC)C(=O)[C@H](C)C[C@H](C)/C=C/C=C/C=C/1C [EVEROLIMUS]
> 30 µM (inactive) | > 30 µM (inactive) | > 30 µM (inactive) | > 30 µM (inactive) | > 30 µM (inactive) | > 30 µM (inactive) | > 30 µM (inactive) | > 30 µM (inactive) | COc1cc2nccc(Oc3ccc(NC(=O)Nc4cc(C)on4)c(Cl)c3)c2cc1OC [TIVOZANIB]
> 30 µM (inactive) | > 30 µM (inactive) | > 30 µM (inactive) | > 30 µM (inactive) | > 30 µM (inactive) | > 30 µM (inactive) | > 30 µM (inactive) | > 30 µM (inactive) | CC(C)Nc1cc(-c2c[nH]c(C(=O)N[C@H](CO)c3cccc(Cl)c3)c2)c(Cl)cn1 [ULIXERTINIB]

SMILES | Kd (Focal adhesion kinase 1) | Kd [1] | Kd [2] | Kd [3] | Kd [4] | Kd [5] | Kd [6] | Kd [7]
Cc1cc(-c2cc(O)ccc2Cl)cc2nnc(Nc3ccc(OCCN4CCCC4)cc3)nc12 | > 30 µM (inactive) | > 30 µM (inactive) | > 30 µM (inactive) | > 30 µM (inactive) | > 30 µM (inactive) | > 30 µM (inactive) | > 30 µM (inactive) | > 30 µM (inactive)
O=C(c1ccc(F)c(F)c1Nc1ccc(I)cc1F)N1CC(O)([C@@H]2CCCCN2)C1 [COBIMETINIB] | > 30 µM (inactive) | > 30 µM (inactive) | > 30 µM (inactive) | > 30 µM (inactive) | > 30 µM (inactive) | > 30 µM (inactive) | > 30 µM (inactive) | > 30 µM (inactive)
CN1CCC(COc2cnc(-c3cccc(Cn4nc(-c5cccc(C#N)c5)ccc4=O)c3)nc2)CC1 [TEPOTINIB] | > 30 µM (inactive) | > 30 µM (inactive) | > 30 µM (inactive) | > 30 µM (inactive) | > 30 µM (inactive) | > 30 µM (inactive) | > 30 µM (inactive) | > 30 µM (inactive)
COC(=O)[C@@]1(O)C[C@H]2O[C@]1(C)n1c3ccccc3c3c4c(c5c6ccccc6n2c5c31)C(=O)NC4 [K-252A] | > 30 µM (inactive) | > 30 µM (inactive) | 0.19 µM (active) | > 30 µM (inactive) | 2.99 µM (active) | > 30 µM (inactive) | > 30 µM (inactive) | > 30 µM (inactive)
